Laboratory results: patent US9580416B2, “Inhibitors of Bruton's tyrosine kinase” (PHARMACYCLICS LLC, priority 2014, dated 2017)

Tests used:
Assay type in all cases: biochemical
Btk = Btk (Homo sapiens, UniProt Q06187); assay: Btk kinase activity, TR-FRET assay; settings: read-out: Btk (IC50)
Summary of the method: (§1)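 Enzyme (Btk 0.5 nM; Lck 6 nM) reacted 1 h with inhibitor, ATP at Km and biotin-peptide substrate in pH 7.4 buffer, 10% DMSO. Phosphopeptide detected by Eu-p-Tyr100 antibody plus streptavidin-APC (665/615 nm). IC50 calculated from fitted Ki(app) via ATP/Km correction plus half total enzyme.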

Lck = Lck (Homo sapiens, UniProt P06239); assay: Lck kinase activity, TR-FRET assay; settings: read-out: LCK (IC50)
Summary of the method: as §1

EGFR = EGFR (Homo sapiens, UniProt P00533); assay: Inhibition of a panel of kinases, in vitro HotSpot kinase assay: EGFR
Experimental: (§2) The degree of inhibition of a panel of kinases is determined using the in vitro HotSpot kinase assay (purified enzymes, ^33P-ATP, an appropriate substrate and 1 uM ATP).

JAK3 = molecular target: T1, JAK3 (Homo sapiens, UniProt P52333); assay: Inhibition of a panel of kinases, in vitro HotSpot kinase assay: JAK3
T1 sequence (P52333 1-1124): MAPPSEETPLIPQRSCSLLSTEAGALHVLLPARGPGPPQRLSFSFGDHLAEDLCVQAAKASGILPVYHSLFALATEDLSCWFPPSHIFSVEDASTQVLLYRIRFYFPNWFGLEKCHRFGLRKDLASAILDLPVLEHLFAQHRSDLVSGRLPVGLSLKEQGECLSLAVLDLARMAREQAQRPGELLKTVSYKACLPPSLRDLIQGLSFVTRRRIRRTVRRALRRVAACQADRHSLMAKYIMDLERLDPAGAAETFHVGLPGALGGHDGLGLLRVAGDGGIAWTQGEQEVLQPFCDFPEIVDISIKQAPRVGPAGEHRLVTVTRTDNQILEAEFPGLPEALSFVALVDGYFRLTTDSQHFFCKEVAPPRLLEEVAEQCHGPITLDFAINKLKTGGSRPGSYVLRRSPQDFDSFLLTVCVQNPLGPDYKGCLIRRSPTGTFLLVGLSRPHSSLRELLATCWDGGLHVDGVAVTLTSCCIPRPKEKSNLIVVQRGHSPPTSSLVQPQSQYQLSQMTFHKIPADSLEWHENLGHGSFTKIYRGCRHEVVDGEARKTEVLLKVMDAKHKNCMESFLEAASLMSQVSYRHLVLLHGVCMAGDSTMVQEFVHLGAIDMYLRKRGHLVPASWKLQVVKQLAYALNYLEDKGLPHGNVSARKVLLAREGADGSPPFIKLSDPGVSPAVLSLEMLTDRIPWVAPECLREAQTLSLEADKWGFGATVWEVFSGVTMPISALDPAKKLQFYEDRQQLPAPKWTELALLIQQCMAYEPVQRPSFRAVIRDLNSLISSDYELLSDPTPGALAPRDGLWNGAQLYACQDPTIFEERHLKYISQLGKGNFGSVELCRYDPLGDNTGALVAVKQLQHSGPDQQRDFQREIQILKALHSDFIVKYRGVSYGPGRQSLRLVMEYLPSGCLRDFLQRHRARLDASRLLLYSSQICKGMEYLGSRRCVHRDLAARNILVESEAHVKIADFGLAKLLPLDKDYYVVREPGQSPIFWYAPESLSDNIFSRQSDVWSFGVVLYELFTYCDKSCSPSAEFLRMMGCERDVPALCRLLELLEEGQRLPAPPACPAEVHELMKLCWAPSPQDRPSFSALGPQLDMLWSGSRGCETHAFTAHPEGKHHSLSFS
Experimental: as §2

Chain of EGFR (P00533 25-1210): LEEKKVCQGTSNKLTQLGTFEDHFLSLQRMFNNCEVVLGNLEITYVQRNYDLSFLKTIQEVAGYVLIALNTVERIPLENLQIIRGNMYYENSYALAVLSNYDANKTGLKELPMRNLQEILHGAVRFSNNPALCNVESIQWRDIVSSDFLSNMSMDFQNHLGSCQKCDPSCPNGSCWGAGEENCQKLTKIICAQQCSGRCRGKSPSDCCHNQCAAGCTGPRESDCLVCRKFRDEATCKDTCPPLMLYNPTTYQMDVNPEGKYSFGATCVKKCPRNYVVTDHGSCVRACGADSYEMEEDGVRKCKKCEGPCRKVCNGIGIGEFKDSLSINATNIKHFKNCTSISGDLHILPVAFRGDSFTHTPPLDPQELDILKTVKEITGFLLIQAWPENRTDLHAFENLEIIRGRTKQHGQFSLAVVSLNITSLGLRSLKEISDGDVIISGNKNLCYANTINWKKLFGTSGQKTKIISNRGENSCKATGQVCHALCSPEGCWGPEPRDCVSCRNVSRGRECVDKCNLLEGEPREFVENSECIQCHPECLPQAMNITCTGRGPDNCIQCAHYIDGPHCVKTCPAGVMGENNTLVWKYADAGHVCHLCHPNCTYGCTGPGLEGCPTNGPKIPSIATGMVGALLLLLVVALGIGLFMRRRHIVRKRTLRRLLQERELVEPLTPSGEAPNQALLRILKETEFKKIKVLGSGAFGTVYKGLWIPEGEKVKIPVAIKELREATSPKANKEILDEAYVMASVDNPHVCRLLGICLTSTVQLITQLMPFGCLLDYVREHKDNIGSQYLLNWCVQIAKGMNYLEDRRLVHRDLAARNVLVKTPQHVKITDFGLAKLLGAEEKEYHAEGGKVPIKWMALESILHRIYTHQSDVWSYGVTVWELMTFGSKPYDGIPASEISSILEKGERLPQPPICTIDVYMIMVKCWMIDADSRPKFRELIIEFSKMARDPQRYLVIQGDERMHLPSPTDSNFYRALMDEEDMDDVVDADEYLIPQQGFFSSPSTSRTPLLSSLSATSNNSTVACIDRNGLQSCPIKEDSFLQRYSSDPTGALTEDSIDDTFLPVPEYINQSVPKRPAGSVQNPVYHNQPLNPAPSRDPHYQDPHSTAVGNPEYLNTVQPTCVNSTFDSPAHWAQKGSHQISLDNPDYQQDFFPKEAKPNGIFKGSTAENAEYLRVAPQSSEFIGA
Chain of Btk (Q06187 whole entry): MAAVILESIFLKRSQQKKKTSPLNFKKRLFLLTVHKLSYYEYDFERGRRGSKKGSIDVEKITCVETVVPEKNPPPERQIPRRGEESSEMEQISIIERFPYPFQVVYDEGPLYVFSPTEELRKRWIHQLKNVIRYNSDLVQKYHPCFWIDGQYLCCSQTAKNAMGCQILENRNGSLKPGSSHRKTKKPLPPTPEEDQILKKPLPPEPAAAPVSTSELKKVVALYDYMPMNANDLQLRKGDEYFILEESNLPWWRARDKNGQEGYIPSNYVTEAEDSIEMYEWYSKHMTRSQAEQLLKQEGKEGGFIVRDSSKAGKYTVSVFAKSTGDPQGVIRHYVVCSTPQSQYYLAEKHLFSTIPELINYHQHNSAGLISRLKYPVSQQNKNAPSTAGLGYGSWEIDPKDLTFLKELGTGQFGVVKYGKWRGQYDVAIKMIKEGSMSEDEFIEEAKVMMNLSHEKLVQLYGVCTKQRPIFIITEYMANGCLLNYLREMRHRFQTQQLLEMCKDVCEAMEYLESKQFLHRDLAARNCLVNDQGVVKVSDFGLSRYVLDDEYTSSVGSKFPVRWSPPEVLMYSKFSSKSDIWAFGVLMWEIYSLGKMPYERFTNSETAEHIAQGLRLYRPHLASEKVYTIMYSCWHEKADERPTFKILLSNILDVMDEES
Chain of Lck (P06239 whole entry, species assumed): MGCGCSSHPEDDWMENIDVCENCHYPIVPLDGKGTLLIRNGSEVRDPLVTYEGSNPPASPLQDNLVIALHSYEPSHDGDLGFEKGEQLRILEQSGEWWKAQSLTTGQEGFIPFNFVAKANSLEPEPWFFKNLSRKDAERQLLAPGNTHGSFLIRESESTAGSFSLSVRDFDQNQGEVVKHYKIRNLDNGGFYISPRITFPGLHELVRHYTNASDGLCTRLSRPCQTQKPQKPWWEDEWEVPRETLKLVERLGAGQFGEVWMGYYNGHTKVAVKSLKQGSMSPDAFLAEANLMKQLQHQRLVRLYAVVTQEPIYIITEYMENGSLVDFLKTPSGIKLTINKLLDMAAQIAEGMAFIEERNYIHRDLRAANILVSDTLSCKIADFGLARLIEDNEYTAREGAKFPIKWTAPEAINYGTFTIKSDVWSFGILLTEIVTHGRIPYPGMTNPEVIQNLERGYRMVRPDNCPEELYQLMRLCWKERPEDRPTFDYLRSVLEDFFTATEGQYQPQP

Structure (SMILES)	IC50 (Btk) [µM]	IC50 (Lck) [µM]	IC50 (EGFR) [µM]	IC50 (JAK3) [µM]
Cc1ccnc(NC(=O)c2ccc(Oc3ccnc4[nH]nc(N[C@@H]5CCCN(C(=O)C6(C)CC6)C5)c34)cc2)c1 [compound 120, 4-[(3-{[(3R)-1-(1-methylcyclopropanecarbonyl)piperidin-3-yl]amino}-1H-pyrazolo[3,4-b]pyridin-4-yl)oxy]-N-(4-methylpyridin-2-yl)benzamide]	< 0.1	0.1 to 1	> 10	> 10
Cc1cc(NC(=O)c2cccc(Nc3ccnc4[nH]nc(N[C@@H]5CCCN(C(=O)N6CCOCC6)C5)c34)c2)ccc1C(C)C [compound 133, N-[3-methyl-4-(propan-2-yl)phenyl]-3-[(3-{[(3R)-1-(morpholine-4-carbonyl)piperidin-3-yl]amino}-1H-pyrazolo[3,4-b]pyridin-4-yl)amino]benzamide]	0.1 to 1	1 to 10	> 10	> 10
Cc1ccnc(NC(=O)c2ccc(Oc3ccnc4[nH]nc(N[C@@H]5CCCN(C(=O)C(=O)N(C)C)C5)c34)cc2)c1 [compound 98, 4-[(3-{[(3R)-1-[(dimethylcarbamoyl)carbonyl]piperidin-3-yl]amino}-1H-pyrazolo[3,4-b]pyridin-4-yl)oxy]-N-(4-methylpyridin-2-yl)benzamide]	< 0.1	0.1 to 1	> 10	> 10
C=CC(=O)N1CCC[C@@H](Nc2n[nH]c3nccc(Oc4cccc(-c5ncc(C)s5)c4)c23)C1 [compound 148]	0.1 to 1	> 10	0.1 to 1	1 to 10
Cc1ccnc(NC(=O)c2ccc(Oc3ccnc4[nH]nc(N[C@@H]5CCCN(C(=O)C(C)(C)C#N)C5)c34)cc2)c1 [compound 102, 4-[(3-{[(3R)-1-(2-cyano-2,2-dimethylacetyl)piperidin-3-yl]amino}-1H-pyrazolo[3,4-b]pyridin-4-yl)oxy]-N-(4-methylpyridin-2-yl)benzamide]	< 0.1	0.1 to 1	> 10	> 10
Cc1ccnc(NC(=O)c2ccc(Oc3ccnc4[nH]nc(N[C@@H]5CCCN(C(=O)C6CCOCC6)C5)c34)cc2)c1 [compound 105, N-(4-methylpyridin-2-yl)-4-[(3-{[(3R)-1-(oxane-4-carbonyl)piperidin-3-yl]amino}-1H-pyrazolo[3,4-b]pyridin-4-yl)oxy]benzamide]	< 0.1	1 to 10	> 10	> 10
Cc1cc(NC(=O)c2cccc(Oc3ccnc4[nH]nc(N[C@H]5CCN(C(=O)c6ccc(F)cc6)C5)c34)c2)ccc1C(C)C [compound 128, 3-[(3-{[(3S)-1-(4-fluorobenzoyl)pyrrolidin-3-yl]amino}-1H-pyrazolo[3,4-b]pyridin-4-yl)oxy]-N-[3-methyl-4-(propan-2-yl)phenyl]benzamide]	0.1 to 1	< 0.1	> 10	> 10

Continued, values first:

IC50 (Btk) [µM]	IC50 (Lck) [µM]	IC50 (EGFR) [µM]	IC50 (JAK3) [µM]	Structure (SMILES)
< 0.1	1 to 10	1 to 10	0.1 to 1	C=CC(=O)N1CCC[C@@H](Nc2n[nH]c3nccc(Oc4ccc(-c5nc6ccccc6o5)cc4)c23)C1 [compound 194, 1-[(3R)-3-({4-[4-(1,3-benzoxazol-2-yl)phenoxy]-1H-pyrazolo[3,4-b]pyridin-3-yl}amino)piperidin-1-yl]prop-2-en-1-one]
0.1 to 1	1 to 10	1 to 10	> 10	O=C(Nc1cc(C(F)(F)F)ccn1)c1ccc(Oc2ccnc3[nH]nc(C4CCCN(C(=O)C5CC5)C4)c23)cc1 (stereo not drawn) [compound 218, 4-{[3-(1-cyclopropanecarbonylpiperidin-3-yl)-1H-pyrazolo[3,4-b]pyridin-4-yl]oxy}-N-[4-(trifluoromethyl)pyridin-2-yl]benzamide]
< 0.1	0.1 to 1	1 to 10	> 10	Cc1cnc(NC(=O)c2ccc(Oc3ccnc4[nH]nc(N[C@@H]5CCN(C(=O)C6CCN(C)CC6)C5)c34)cc2)s1 [compound 221, N-(5-methyl-1,3-thiazol-2-yl)-4-[(3-{[(3R)-1-(1-methylpiperidine-4-carbonyl)pyrrolidin-3-yl]amino}-1H-pyrazolo[3,4-b]pyridin-4-yl)oxy]benzamide]
< 0.1	0.1 to 1	0.1 to 1	0.1 to 1	C=CC(=O)N1CCC[C@@H](Nc2n[nH]c3nccc(Oc4ccc(-c5nc6ccccc6s5)cc4)c23)C1 [compound 192]
< 0.1	0.1 to 1	1 to 10	> 10	Cc1ccnc(NC(=O)c2ccc(Oc3ccnc4[nH]nc(N[C@@H]5CCN(C#N)C5)c34)cc2)c1 [compound 275, (R)-4-(3-(1-cyanopyrrolidin-3-ylamino)-1H-pyrazolo[3,4-b]pyridin-4-yloxy)-N-(4-methylpyridin-2-yl)benzamide]
